In PMC7655571, “Acetylcholinesterase inhibition in electric eel and human donor blood: an in vitro approach to investigate interspecies differences and human variability in toxicodynamics” (Archives of Toxicology, 2020):
“Also recorded” adds a separate entry of the source. Where two headings read alike, the source gives them in different places.

Key:
human blood AChE = biological target: T1, human blood AChE (Homo sapiens, UniProt P22303); test: AChE inhibition in human donor whole blood (Ellman method); format: biochemical; settings: for AChE inhibition (in words), human blood: concentration–response curves
T1 construct: 90 µL undiluted blood in a 48-wells plate; from tissue; host or cells: venous EDTA whole blood from healthy human donors, lysed and diluted in Triton X-100 buffer
Method: (§1) A 1.3 mM DTNB buffer and a 6 mM acetylthiocholine buffer were prepared in the 50 mM sodium phosphate buffer, a 3 mM ethopropazine buffer was prepared in sterile water and all were stored in aliquots at − 20 °C. A 600 µM ethopropazine buffer was prepared just before use in sodium phosphate buffer.
(§2) Stock solutions were diluted in methanol to create a dosing series and also stored at − 20 °C. These series were 100× diluted in sodium phosphate buffer to get 1% methanol solutions, resulting in a final concentration of 0.1% methanol in the wells.
AChE from Electrophorus electricus (electric eel) and freshly drawn (maximum one-day-old), venous EDTA whole blood samples from healthy human donors were used. […] For human blood AChE, 50 µL of the blood was added to a new 48-wells plate and 950 µL Triton buffer was added to these wells (20× dilution).
Briefly, 20 µL of electric eel AChE or 20 µL of Triton-diluted blood (either exposed or unexposed) and 20 µL ethopropazine were added to 460 µL of DTNB buffer in a 48-wells plate. […] Blank wells contained only DTNB buffer and unexposed enzyme/blood to correct for any background absorbance. To these wells, 100 µL sodium phosphate buffer was added instead of acetylthiocholine after incubation.
Unexposed, diluted blood (100 µL) was added to a 96-wells plate and 100 µL transformation agent (20 mg potassium ferricyanide, 5 mg potassium cyanide, 100 mg sodium bicarbonate and 50 µL Triton X-100 in 100 mL water) was added. […] Blank wells contained transformation reagent and buffer to correct for any background absorbance.
All in vitro data were analysed in GraphPad Prism (version 8.4) and are expressed as mean ± standard deviation (SD). For data analysis, vehicle control (0.1% methanol) was set at 100% for both human and electric eel AChE. For human blood, the technical replicates were averaged to perform statistical tests. Unpaired t tests were used to test for differences between men and women and a one-way ANOVA followed by a post-hoc Tukey test was used to compare data between different age groups (group 1: ≥ 60 years; group 2: 31–60 years; group 3: ≤ 30 years).

[1] = biological target: T2, Electrophorus electricus AChE (Electrophorus electricus, UniProt O42275); test: AChE inhibition, electric eel enzyme (Ellman method); format: biochemical; settings: for AChE inhibition (in words), electric eel: concentration–response curves
T2 construct: purchased Sigma-Aldrich C2888
Method: as §1, §2
AChE from Electrophorus electricus (electric eel) and freshly drawn (maximum one-day-old), venous EDTA whole blood samples from healthy human donors were used. […] Following incubation for 30 min at room temperature, electric eel AChE was used directly in the enzyme activity assay (see “Enzyme activity assay”). For human blood AChE, 50 µL of the blood was added to a new 48-wells plate and 950 µL Triton buffer was added to these wells (20× dilution).
Briefly, 20 µL of electric eel AChE or 20 µL of Triton-diluted blood (either exposed or unexposed) and 20 µL ethopropazine were added to 460 µL of DTNB buffer in a 48-wells plate. […] Blank wells contained only DTNB buffer and unexposed enzyme/blood to correct for any background absorbance. To these wells, 100 µL sodium phosphate buffer was added instead of acetylthiocholine after incubation. The final concentration of electric eel AChE was 4 mU/well.
All in vitro data were analysed in GraphPad Prism (version 8.4) and are expressed as mean ± standard deviation (SD). For data analysis, vehicle control (0.1% methanol) was set at 100% for both human and electric eel AChE. For human blood, the technical replicates were averaged to perform statistical tests. […] The electric eel AChE data consisted of 3 technical replicates per experiment and 3–4 independent biological replicates.

[2] = measured or estimated in plasma following human exposure, cited from earlier work
[3] = system: human AChE (recombinant enzyme); settings: source: recombinant enzyme; ref Li et al. ([2019]); cited from earlier work
[4] = IC50 Human, whole blood, average of 20 donors

T1 sequence (P22303 32-617 isoform P22303-2 limits assumed): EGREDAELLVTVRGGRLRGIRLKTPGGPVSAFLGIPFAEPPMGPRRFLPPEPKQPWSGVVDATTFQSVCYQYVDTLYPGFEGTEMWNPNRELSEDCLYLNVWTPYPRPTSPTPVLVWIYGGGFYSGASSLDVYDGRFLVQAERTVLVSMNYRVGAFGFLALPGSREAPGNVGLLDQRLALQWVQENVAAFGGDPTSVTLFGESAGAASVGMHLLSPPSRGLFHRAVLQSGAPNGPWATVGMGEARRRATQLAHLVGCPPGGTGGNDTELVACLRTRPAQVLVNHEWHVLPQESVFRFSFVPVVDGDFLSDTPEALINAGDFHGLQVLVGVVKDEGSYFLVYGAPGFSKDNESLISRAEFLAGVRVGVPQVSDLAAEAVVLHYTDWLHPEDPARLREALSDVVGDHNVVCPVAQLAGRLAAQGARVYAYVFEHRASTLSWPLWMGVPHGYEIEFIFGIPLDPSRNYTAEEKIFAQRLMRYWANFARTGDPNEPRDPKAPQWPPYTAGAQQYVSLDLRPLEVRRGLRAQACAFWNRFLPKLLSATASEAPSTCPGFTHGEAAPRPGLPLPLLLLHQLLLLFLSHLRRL
T2 sequence (O42275 24-633): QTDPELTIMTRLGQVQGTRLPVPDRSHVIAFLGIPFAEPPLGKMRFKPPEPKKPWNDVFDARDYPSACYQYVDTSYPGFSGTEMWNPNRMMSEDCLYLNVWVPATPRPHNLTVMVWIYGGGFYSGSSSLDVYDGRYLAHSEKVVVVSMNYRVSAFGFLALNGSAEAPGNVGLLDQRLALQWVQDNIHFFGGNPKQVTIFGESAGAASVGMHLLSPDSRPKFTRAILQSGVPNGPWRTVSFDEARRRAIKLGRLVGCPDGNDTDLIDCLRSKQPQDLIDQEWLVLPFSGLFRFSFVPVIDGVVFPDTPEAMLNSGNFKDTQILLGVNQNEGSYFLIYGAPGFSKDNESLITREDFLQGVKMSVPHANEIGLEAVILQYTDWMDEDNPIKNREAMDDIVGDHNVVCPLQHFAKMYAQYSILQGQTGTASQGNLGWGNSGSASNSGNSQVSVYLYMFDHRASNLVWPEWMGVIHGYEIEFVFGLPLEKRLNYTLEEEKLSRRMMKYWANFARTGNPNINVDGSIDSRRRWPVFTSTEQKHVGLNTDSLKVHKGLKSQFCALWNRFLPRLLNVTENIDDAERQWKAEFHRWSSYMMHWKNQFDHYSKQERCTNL

SMILES: Cc1nc(N(C)C)nc(OC(=O)N(C)C)c1C [PI, pirimicarb]
- IC50 (human blood AChE; [4]): 20 µM
- IC50 (human blood AChE; IC50 Value, donor 1): 19 µM
- IC50 (human blood AChE; IC50 Value, donor 2): 19 µM
- IC50 (human blood AChE; IC50 Value, donor 3): 17 µM
- IC50 (human blood AChE; IC50 Value, donor 4): 22 µM
- IC50 (human blood AChE; IC50 Value, donor 5): 17 µM
- IC50 (human blood AChE; IC50 Value, donor 6): 24 µM
- IC50 (human blood AChE; IC50 Value, donor 7): 23 µM
- IC50 (human blood AChE; IC50 Value, donor 8): 26 µM
- IC50 (human blood AChE; IC50 Value, donor 9): 15 µM
- IC50 (human blood AChE; IC50 Value, donor 11): 29 µM
- IC50 (human blood AChE; IC50 Value, donor 12): 18 µM
- IC50 (human blood AChE; IC50 Value, donor 13): 19 µM
- IC50 (human blood AChE; IC50 Value, donor 14): 15 µM
- IC50 (human blood AChE; IC50 Value, donor 15): 16 µM
- IC50 (human blood AChE; IC50 Value, donor 16): 14 µM
- IC50 (human blood AChE; IC50 Value, donor 17): 16 µM
- IC50 (human blood AChE; IC50 Value, donor 18): 22 µM
- IC50 (human blood AChE; IC50 Value, donor 19): 28 µM
- IC50 (human blood AChE; IC50 Value, donor 20): 19 µM
- AChE inhibition (in words), human blood (human blood AChE): show inhibition of AChE
- Coefficient of variation (CV) C1 Human (human blood AChE; human variability in AChE inhibition, concentration level C1 (Table S2)): 5.8%
- Coefficient of variation (CV) C2 Human (human blood AChE; human variability in AChE inhibition, concentration level C2 (Table S2)): 6.0%
- Coefficient of variation (CV) C3 Human (human blood AChE; human variability in AChE inhibition, concentration level C3 (Table S2)): 6.9%
- Coefficient of variation (CV) C4 Human (human blood AChE; human variability in AChE inhibition, concentration level C4 (Table S2)): 5.7%
- Coefficient of variation (CV) C5 Human (human blood AChE; human variability in AChE inhibition, concentration level C5 (Table S2)): 5.8%
- Coefficient of variation (CV) C6 Human (human blood AChE; human variability in AChE inhibition, highest concentration C6 (Table S2)): 6.6%
- Human uncertainty factor (UF) UF97.5 (human blood AChE; interindividual differences, concentration closest to the IC20, 95% CI in brackets): 1.8 [1.5–2.1]
- IC20 (human blood AChE; read-out: IC20 Human, whole blood, average of 20 donors): 7.1 µM
- IC20 (human blood AChE; read-out: IC20 Value, donor 1): 8.6 µM
- IC20 (human blood AChE; read-out: IC20 Value, donor 2): 6.4 µM
- IC20 (human blood AChE; read-out: IC20 Value, donor 3): 5.8 µM
- IC20 (human blood AChE; read-out: IC20 Value, donor 4): 8 µM
- IC20 (human blood AChE; read-out: IC20 Value, donor 5): 5.9 µM
- IC20 (human blood AChE; read-out: IC20 Value, donor 6): 9.3 µM
- IC20 (human blood AChE; read-out: IC20 Value, donor 7): 6.4 µM
- IC20 (human blood AChE; read-out: IC20 Value, donor 8): 8.1 µM
- IC20 (human blood AChE; read-out: IC20 Value, donor 9): 4.2 µM
- IC20 (human blood AChE; read-out: IC20 Value, donor 10): 5.3 µM
- IC20 (human blood AChE; read-out: IC20 Value, donor 11): 7 µM
- IC20 (human blood AChE; read-out: IC20 Value, donor 12): 8.8 µM
- IC20 (human blood AChE; read-out: IC20 Value, donor 13): 4.7 µM
- IC20 (human blood AChE; read-out: IC20 Value, donor 14): 6.1 µM
- IC20 (human blood AChE; read-out: IC20 Value, donor 15): 6 µM
- IC20 (human blood AChE; read-out: IC20 Value, donor 16): 5.9 µM
- IC20 (human blood AChE; read-out: IC20 Value, donor 17): 4.8 µM
- IC20 (human blood AChE; read-out: IC20 Value, donor 18): 9.2 µM
- IC20 (human blood AChE; read-out: IC20 Value, donor 19): 18 µM
- IC20 (human blood AChE; read-out: IC20 Value, donor 20): 3.4 µM
- IC20 ([1]; 30 min exposure, room temperature): 9.9 µM
- IC50 ([1]; 30 min exposure, room temperature, 3–4 independent experiments, read-out: IC50 Electric eel): 61 µM
- AChE inhibition (in words), electric eel [1]: show inhibition of AChE
- In vivo concentration ([2]; ref Hoffmann et al. ([2008])): ≤ 300 µM

SMILES: COP(=S)(OC)SCN1C(=O)c2ccccc2C1=O [PM, phosmet]
- IC50 Value Human [3]: Inactive
- IC50 (human blood AChE; [4]): > 30 µM
- AChE inhibition (in words), human blood (human blood AChE): do not inhibit AChE activity; also recorded: do not show any AChE inhibition; also recorded: did not inhibit AChE
- AChE inhibition (in words), human blood (human blood AChE; listed as phosmet): did not show inhibition
- IC50 [1]: > 1.4 µM
- AChE inhibition (in words), electric eel [1]: do not show any AChE inhibition; also recorded: did not inhibit AChE
- AChE inhibition (in words), electric eel ([1]; listed as phosmet): did not show inhibition
- In vivo concentration ([2]; ref Santori et al. ([2020])): ≤ 50 µM
